The text below walks through data of PMC3578829, “A Small Molecule (Pluripotin) as a Tool for Studying Cancer Stem Cell Biology: Proof of Concept” (PLoS ONE, 2013).

For one test, the system named is SW-620. Briefly: FACS analysis of putative CSC surface markers. The arrangement: key to Change in Surface Marker Expression: Y indicates increased putative surface marker expression using the panel of 6 antibodies described in the Material and Methods. It is filed as cell-based. The source says:
(§1) A BD FACsAria (BD Biosciences, San Jose, CA) was utilized for FACS analysis according to standard procedures. The instrument was equipped with a 488 nm 100 mW blue laser, a 638 nm 30 mW red laser, and a 405 nm 50 mW violet laser. The software package Diva 5.0 (BD Biosciences) was used for collection and analysis of data. The alignment of the three lasers in the flow cell was verified prior to running tumor cell samples by running Rainbow Beads (Spherotech). The six colors being used in the analysis were then compensated to account for spectral overlap emitted by the fluorochromes within each laser as well as across the lasers using a semi-automated process. This was done using compensation beads (BD Biosciences) that were coated with anti-mouse antibodies. The beads were incubated with each individual antibody used in the six-color panel for 15 min at room temperature. An unstained tube was also prepared. The unstained beads along with beads stained for each fluorochrome were run individually, recording 5000 events. The data was then run through the Diva software compensation matrices and the amount of “spectral bleed” from other fluorochromes into the fluorochrome of interest’s channel was determined and automatically compensated.
(§2) Treated and untreated cells (1×10^6 cells/condition) were harvested with trypsin EDTA (Invitrogen), washed, and then labeled with a six antibody cocktail (antibodies against the following epitopes: CD44, CD24, CD133, CD326, CD166, and P-glycoprotein in PBS without calcium and magnesium supplemented with 2% FBS) or appropriate isotype control antibodies. An unstained control was also prepared. The specific amounts needed for each labeled antibody were determined through titration studies. All cells were incubated with antibody for 15 minutes on ice and in the dark. The cells were then washed, resuspended in buffer, and analyzed on the FACsAria. For each experimental condition, the isotype control tube was evaluated first and 10,000 events were collected. Forward vs. side scatter gates were then established to eliminate likely debris. Further gating was determined for each conjugated isotype control antibody such that 1% of the population was considered a positive staining event. Cells stained with specific labeled antibodies were then evaluated and 10,000 events collected.

The subject of test [1] is HCT-116. Briefly: FACS analysis of putative CSC surface markers. The arrangement: key to Change in Surface Marker Expression: Y indicates increased putative surface marker expression using the panel of 6 antibodies described in the Material and Methods. It is filed as cell-based.
Source text: as §1, §2

For test [2], the system named is HT29. Nature of the test: FACS analysis of putative CSC surface markers. It is filed as cell-based. The arrangement: key to Change in Surface Marker Expression: Y indicates increased putative surface marker expression using the panel of 6 antibodies described in the Material and Methods.
Source text: as §1, §2

For a further test, the system named is colon tumor lines. The note with it: five day exposure to 0.1 µM SC-1.
Test [3] relates to HCT-116. Briefly: Soft agar cloning assay. It is filed as cell-based. The protocol: (§3) The soft agar colony formation assay has been previously described. In brief, for each treatment condition, triplicate 35 mm^2 dishes were coated with a 1 ml base layer containing 0.7% agarose (Seaplaque: FMC Corp., Rockland, ME). On day 0, cells were dissociated, washed once in growth medium, and subcultured by layering various cell concentrations in 0.5 ml culture medium containing 0.3% agarose onto the base coat. Culture dishes were transferred to a refrigerator (4°C) for 15 min, to room temperature for 10 min, and then to culture incubators. An upper layer of 0.5 ml culture medium was applied on day 0. Cultures were stained with MTT (1 mg/ml) for visualization and imaging at multiple time intervals (day 7 and 14). Cumulative counts of colonies (diameters, >60 µm) and cumulative volumes of CFU (diameters >120 µm) were determined with an Omnicon FAS-II (Bausch & Lomb, Rochester, NY) following calibration with an Omnicon test plate 3 and polystyrene microspheres embedded in soft agar matrix. The evaluable region of each culture dish (35 contiguous fields equivalent to 51% of the cell layer culture volume) was analyzed. Selective scoring of viable cell groups was achieved by adjustment of the instrument detection threshold to exclude images of nonstained cellular material and debris. The data was analyzed with Lotus Symphony software.

The test system of the next test is KM12. Nature of the test: Soft agar cloning assay. It counts as cell-based. As for the experimental part: as §3
The subject of another test is HCC-2998. Briefly: Soft agar cloning assay. It counts as cell-based. As for the experimental part: as §3
The subject of test [4] is HT29. Nature of the test: Soft agar cloning assay. It is filed as cell-based. As for the experimental part:
as §3

The test system of test [5] is COLO 205. Briefly: Soft agar cloning assay. It is filed as cell-based. As for the experimental part: as §3
Test [6] deals with COLO 205. Briefly: FACS analysis of putative CSC surface markers. It counts as cell-based. The note with it: five days of SC-1 treatment. The source says: A BD FACsAria (BD Biosciences, San Jose, CA) was utilized for FACS analysis according to standard procedures. The instrument was equipped with a 488 nm 100 mW blue laser, a 638 nm 30 mW red laser, and a 405 nm 50 mW violet laser. The software package Diva 5.0 (BD Biosciences) was used for collection and analysis of data. The alignment of the three lasers in the flow cell was verified prior to running tumor cell samples by running Rainbow Beads (Spherotech). The six colors being used in the analysis were then compensated to account for spectral overlap emitted by the fluorochromes within each laser as well as across the lasers using a semi-automated process. […] The data was then run through the Diva software compensation matrices and the amount of “spectral bleed” from other fluorochromes into the fluorochrome of interest’s channel was determined and automatically compensated.
Treated and untreated cells (1×10^6 cells/condition) were harvested with trypsin EDTA (Invitrogen), washed, and then labeled with a six antibody cocktail (antibodies against the following epitopes: CD44, CD24, CD133, CD326, CD166, and P-glycoprotein in PBS without calcium and magnesium supplemented with 2% FBS) or appropriate isotype control antibodies. […] The specific amounts needed for each labeled antibody were determined through titration studies. […]

The next test deals with CHK2 (Homo sapiens, UniProt O96017). Briefly: In vitro kinase inhibition assay (same assay as RSK2). It is filed as biochemical. As for the experimental part:
(§4) RSK2 (90 kD ribosomal S6 kinase), a kinase with both a N- and C-terminal functional domains, phosphorylates multiple targets and is phosphorylated by ERK1/2, another SC-1 target. As a downstream effector, RSK2 signals many cellular behaviors including cell survival, growth, proliferation, and migration. […] Potential inhibitory activity of SC-1 on a random selection of other protein kinases (Aurora kinase B, CHK1, and CHK2) was also evaluated in the same assay and no effect was found (Figure 4A). To determine if activity of related (to RSK2) protein kinases in the AGC kinase family was inhibited by SC-1, further studies were conducted (Table 3). […] Because SC-1 inhibited these selected kinases in the micromolar range and the kinase assay is distinct from the one reporting data in Figure 4A, the positive EC50 value for Abl1 kinase was reported in Table 3 as well. These findings were consistent with predictions reported by Okram et al..
(§5) The RSK2 in vitro kinase inhibition assay utilized was a modification of protocols established by Nguyen et al.. Additional protocols that confirmed the results depicted in Figure 4 and evaluated kinase inhibitory activity in a random selection of protein kinases (Table 3) were conducted at Reaction Biology Corporation (Malvern, PA). This was a miniaturized ^33P-based screening assay.

Another test has as its target CHK1 (Homo sapiens, UniProt O14757). Described as above. It is filed as biochemical. As for the experimental part:
as §4, §5

The target in another test is Aurora kinase B (Homo sapiens, UniProt Q96GD4). Described as above. It is filed as biochemical. As for the experimental part:
as §4, §5

[7] abbreviates: five days of SC-1 treatment, mean±s.e.m., n = 3.
The mark [8] stands for this setting: soft agar, summary of SC-1 effects.

Aurora kinase B, sequence (Q96GD4 whole entry, species assumed): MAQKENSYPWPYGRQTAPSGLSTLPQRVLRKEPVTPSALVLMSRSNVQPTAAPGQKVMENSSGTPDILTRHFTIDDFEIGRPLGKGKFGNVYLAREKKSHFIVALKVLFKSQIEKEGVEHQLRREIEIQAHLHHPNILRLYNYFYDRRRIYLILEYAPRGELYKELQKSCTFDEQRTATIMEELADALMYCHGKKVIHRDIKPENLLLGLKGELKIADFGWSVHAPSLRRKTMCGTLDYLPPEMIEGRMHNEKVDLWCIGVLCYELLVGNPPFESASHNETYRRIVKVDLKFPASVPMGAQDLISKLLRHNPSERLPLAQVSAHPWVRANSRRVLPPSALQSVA
CHK1, sequence (O14757 whole entry, species assumed): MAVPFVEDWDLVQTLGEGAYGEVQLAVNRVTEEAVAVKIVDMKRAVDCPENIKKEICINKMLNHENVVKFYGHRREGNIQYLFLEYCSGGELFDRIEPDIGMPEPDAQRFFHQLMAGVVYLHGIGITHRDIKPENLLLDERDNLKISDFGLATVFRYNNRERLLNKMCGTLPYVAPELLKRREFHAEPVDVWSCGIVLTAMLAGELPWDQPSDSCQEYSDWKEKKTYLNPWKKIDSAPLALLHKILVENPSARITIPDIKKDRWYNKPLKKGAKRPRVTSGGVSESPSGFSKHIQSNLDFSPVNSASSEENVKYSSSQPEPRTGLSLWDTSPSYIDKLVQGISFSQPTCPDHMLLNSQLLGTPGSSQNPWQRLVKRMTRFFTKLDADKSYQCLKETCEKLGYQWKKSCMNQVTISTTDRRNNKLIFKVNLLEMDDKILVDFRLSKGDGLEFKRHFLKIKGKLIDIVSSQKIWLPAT
CHK2, sequence (O96017 whole entry, species assumed, the tested form may be a part): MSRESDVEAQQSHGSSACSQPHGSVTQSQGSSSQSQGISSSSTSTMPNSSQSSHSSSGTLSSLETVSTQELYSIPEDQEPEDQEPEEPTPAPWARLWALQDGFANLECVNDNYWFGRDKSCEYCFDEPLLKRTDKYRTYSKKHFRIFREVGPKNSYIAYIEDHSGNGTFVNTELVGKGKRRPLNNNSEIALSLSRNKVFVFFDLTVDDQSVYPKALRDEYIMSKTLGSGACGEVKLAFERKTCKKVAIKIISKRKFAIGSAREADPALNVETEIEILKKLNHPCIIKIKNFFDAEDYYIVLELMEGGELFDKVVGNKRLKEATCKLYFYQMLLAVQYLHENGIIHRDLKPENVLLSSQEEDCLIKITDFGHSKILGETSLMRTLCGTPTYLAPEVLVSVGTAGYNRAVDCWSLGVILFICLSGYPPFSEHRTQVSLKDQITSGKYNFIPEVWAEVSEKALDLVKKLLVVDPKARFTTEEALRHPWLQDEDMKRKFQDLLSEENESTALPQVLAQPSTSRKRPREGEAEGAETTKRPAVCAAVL
Experimental for colon tumor lines: In all experiments, each tumor line was cultured in 60 mm^2 tissue culture treated dishes at an initial concentration of 62,500/ml (total 4 ml) before addition of 0.1 µM SC-1 or an equivalent amount of diluent (DMS0) the next day. Five day exposures were conducted. The final concentration utilized for treatment for all tumor lines was determined by evaluating a range of SC-1 concentrations (0.01 to 10 µM) for sphere formation and any cytotoxic effects in the HCT-116 tumor line.
*Each colon cell line was seeded on day 0 with 0.25 x 10^6 cell/60 mm^2 Petri dish. Compound (0.1 µM) was added on day 1 and cells were enzymatically harvested 5 days later.

`Cc1cc(Nc2ncc3c(n2)N(C)C(=O)N(c2cc(NC(=O)c4cccc(C(F)(F)F)c4)ccc2C)C3)n(C)n1` [SC-1] showed a CD44 subpopulation in the test with SW-620 (setting [7]) of 74.1±13.4 % positive. For the same compound, the “Change in Surface Marker Expression” value is “Y (CD44+)” with SW-620 (marker CD44+, summary of SC-1 effects); “Y (CD44+ CD24−)” with HCT-116 [1] (marker CD44+ CD24−, summary of SC-1 effects); “Y (CD133+)” in the test with HT29 [2] (marker CD133+, summary of SC-1 effects). The “CD44+ CD24- subpopulation” value in the test with HCT-116 [1] (after SC-1 treatment) is given as “increased”. In addition, the “Cells expressing the CD133 glycosylated epitope” value in the test on HT29 [2] (setting [7]) turned out to be 27.6±3.6 % positive. The “Cell number after in vitro SC-1 treatment vs control” value in the test on colon tumor lines is listed as “statistically significant decrease in cell number”. Also, the “Cloning efficiency in soft agar vs control” value in the test on HCT-116 [3] (0.1 µM SC-1 for five days), in the test with KM12 (0.1 µM SC-1 for five days), in the test on HCC-2998 (0.1 µM SC-1 for five days), in the test with HT29 [4] (0.1 µM SC-1 for five days) and in the test on COLO 205 [5] (0.1 µM SC-1 for five days) was “significant increases in cloning efficiencies” in each case. Further, the Clonogenicity result with HCT-116 [3] (setting [8]), with KM12 (setting [8]), in the test with HCC-2998 (setting [8]), with HT29 [4] (setting [8]) and with COLO 205 [5] (setting [8]) was “Y” in each case. Moreover, the “Colony formation in soft agar vs control” value with COLO 205 [5] (0.1 µM SC-1 for 24 hrs prior to cloning) is reported as “increased colony formation was found only at the highest plating density”. Besides, in the test with COLO 205 [6], the “Expression of the putative CSC markers” value was “No increased expression”. For the same compound, the “Inhibitory activity on kinase” value on CHK2, on CHK1 and at Aurora kinase B was “no effect” in each case.
